Source: the METLIN SMRT retention time set (Domingo-Almenara et al. 2019)

Assay: gradient 5% acetonitrile 3 min, to 50% in 2 min, to 85% in 15 min, held 3 min, 100 µL/min
Settings: column: Zorbax Extend-C18 2.1 x 50 mm; eluents: water / acetonitrile, 0.1% formic acid
Procedure, shortened: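 Retention times come from adduct peaks that were picked computationally and then checked by hand. The standards, pure and pooled in mixtures of ~100 molecules, were run on a Zorbax Extend-C18 column (2.1 × 50 mm, 1.8 μm) at 100 μL/min with water and acetonitrile, each with 0.1% formic acid. Detection was by quadrupole time-of-flight mass spectrometry in positive and negative ionization mode, with a dead volume of 40 μL and a dwell volume of 900 μL.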

| Structure (SMILES) | RP-LC retention time [s] |
| --- | --- |
| CCCC1c2nccn2CCCN1C(=O)c1ccoc1C (centres undefined) | 592 |
| Clc1cc(N2CCSCC2)ncn1 | 763 |
| CCC(C)N(CCNC(=O)c1cc(C)nn1-c1ccccc1)C1CCCCC1 (centres undefined) | 684 |
| Cc1nn(-c2ccc(N3CCOCC3)nn2)c(C)c1CCC(=O)N1CCN(c2ccccn2)CC1 | 578 |
| CCN1C(=O)c2cc(S(=O)(=O)Nc3cc(F)cc(F)c3)ccc2Oc2cccnc21 | 1040 |
| Cc1cc(N2CCN(c3ccccn3)CC2)n2nc(-c3cccc(Cl)c3)c(C)c2n1 | 828 |
| CCCN1CCN(S(=O)(=O)c2cc(-c3cc(C(F)(F)F)[nH]n3)sc2C)CC1 | 707 |
| O=C(CSc1nnc2c(=O)n(-c3ccc(F)cc3)ccn12)c1ccc(F)cc1 | 802 |
| COc1ccccc1-c1nc2nccc(-c3cc4ccccc4o3)n2n1 | 1010 |
| O=S(=O)(CCCOc1ccc(F)cc1)NCC1CCCO1 (centres undefined) | 763 |
| CCOc1cccc(C2c3[nH]c4ccccc4c3CCN2C(=O)c2cccnc2)c1 (centres undefined) | 968 |
| CCOCCCNc1ccc(-c2nnc(-c3ccc(C)cc3)o2)cn1 | 801 |
| CCc1cccc(NC(=O)Cn2ncc3c(N4CCN(c5ccccn5)CC4)ncnc32)c1 | 655 |
| Cn1ncc2c3ccccc3n(CCCC(=O)NCCCN3CCOCC3)c2c1=O | 593 |
| Cc1ccc(NC(=O)Cn2nc(C)cc2C(=O)Nc2cc(C)ccc2C)cc1 | 981 |
| Cc1c2cnn(CC(=O)NCC3CCCO3)c(=O)c2c(C)n1Cc1ccccc1F (centres undefined) | 747 |
| COc1cccc(S(=O)(=O)NCc2cccnc2-c2cccc(C)c2)c1 | 718 |
| CCOC(=O)c1cc(-c2ccccc2)n(CCC(=O)N2CCN(c3ccccn3)CC2)c1C | 715 |
| Cc1oc(-c2ccc(C(=O)NCCCN3CCN(C)CC3)cc2)nc1CSc1ccccc1 | 645 |
| Cn1ncc2c3ccccc3n(CC(=O)N3CCN(Cc4ccc5c(c4)OCO5)CC3)c2c1=O | 622 |
| CCC(C)NC(=O)Cn1c(=O)n(CCCCC(=O)NC2CCCC2)c(=O)c2ccccc21 (centres undefined) | 736 |
| CN1C(=O)C(C)(C)COc2cc(NS(=O)(=O)Cc3cccc(Cl)c3)ccc21 | 880 |
| C=CCN1CCc2c(cc(O)c(O)c2Cl)C(c2ccccc2)C1 (centres undefined) | 666 |

| Structure (SMILES) | RP-LC retention time [s] |
| --- | --- |
| O=C(Cn1cccc1-c1nnc(C2CCC2)o1)Nc1ccccc1 | 862 |
| CN(Cc1ccccc1)C(=O)c1ccc(CN2CCN(C3CCCC3)C(=O)C2=O)cc1 | 763 |
| CCCCN(C)Cc1nc(-c2ccc(N3CCOCC3)nc2)no1 | 594 |
| Cc1nc(-n2c(C)ccc2C)sc1C(=O)NC1CC1 | 850 |
| COc1cccc(S(=O)(=O)N2CCN(c3cc(C)nc(N4CCOCC4)n3)CC2)c1 | 668 |
| Cc1ccc(NC(=O)NC2CCN(c3ccccc3)C2=O)cc1F (centres undefined) | 855 |
| CCc1ccc(CNC(=O)C2CCN(Cc3cn(CC)c4ccc(OC)cc34)CC2)cc1 | 761 |
| Oc1cccc(-c2nc3cnccn3c2Nc2ccccc2)c1 | 710 |
| Oc1ccc(Br)cc1-c1nc2ncccn2c1Nc1cccc(C(F)(F)F)c1 | 1080 |
| Cc1cc(=O)n2c(-c3ccc(NC(=O)Nc4ccc(F)c(F)c4)cc3)csc2n1 | 776 |
| Cc1[nH]c(C(=O)N2CCCC(C(=O)NCCN3CCCCC3)C2)c(C)c1C(=O)OC(C)C (centres undefined) | 634 |
| Cc1c(Cl)cccc1NC(=O)Cn1c(C)nc2onc(C)c2c1=O | 817 |
| CCN1C(=O)c2cccnc2Sc2cc(NC(=O)CCc3ccccc3)ccc21 | 950 |
| CC1CCc2[nH]nc(C(=O)N3CCN(C(C)C)CC3)c2C1 (centres undefined) | 588 |
| O=C(NCCN1CCN(c2ccc(Cl)cc2)CC1)C1CC1 | 576 |
| Cc1cc(-c2nnc(C3CCC3)o2)c(C)n1CC(=O)Nc1cccc(F)c1 | 900 |
| COc1ccc(NC(=O)Cn2nc3n(c2=O)CCCCC3)cc1Cl | 692 |
| CCc1ccc(NS(=O)(=O)c2cc(-c3nc(C(C)C)cs3)cs2)cc1 | 1260 |
| CCCCN1CCN(Cc2nc(-c3ccc(N4CCCCC4)nc3)no2)CC1 | 602 |
| COCCCNC(=O)Cn1cccc(-c2nc(-c3ccc(F)cc3)no2)c1=O | 702 |
| O=C(Nc1cc(F)ccc1F)C1CCN(C(=O)c2cccn2-c2cccnc2)CC1 | 728 |
| Cc1cc(C)c(C(=O)N2CCCC(C(=O)N3CCN(c4cccc(Cl)c4)CC3)C2)[nH]1 (centres undefined) | 953 |
| Cc1cccc(S(=O)(=O)Nc2cc(-c3cn4cccc(C)c4n3)ccc2C)c1 | 695 |

| Structure (SMILES) | RP-LC retention time [s] |
| --- | --- |
| O=C(Nc1cccn2c(C3CCC3)nnc12)C1COc2ccccc2O1 (centres undefined) | 837 |
| CCC(C)NC(=O)N1CCN(Cc2nc3cc(C(=O)N(C)C)ccc3n2C)CC1 (centres undefined) | 586 |
| CCOc1ccc(CC(=O)N2CCCC2c2nc(-c3ccccc3Cl)no2)cc1OCC (centres undefined) | 1050 |
| O=C(CN1CCN(Cc2ccc(F)cc2Cl)C1=O)NCCCc1ccccc1 | 930 |
| COCCN1C(=O)[C@H]2CN(Cc3cccc(Cl)c3F)C[C@H]2C1=O | 685 |
| O=C(c1cc2ccccc2[nH]1)N1CCCC(c2nnc(C(F)(F)F)o2)C1 (centres undefined) | 857 |
| Clc1ccc(Cl)c(-c2ccc(-c3nn4c(-c5ccco5)nnc4s3)o2)c1 | 1260 |
| CCOc1ccc2nc(Nc3ncc4c(n3)CC(c3ccc(C)cc3)CC4=O)nc(C)c2c1 (centres undefined) | 886 |
| Cc1ccccc1C(=O)N1CCC2(C1)C(=O)Nc1ccccc12 (centres undefined) | 703 |
| Cc1cc(-c2ccc(N3C(=O)CC4(CCCC4)C3=O)c(C)c2)ccc1N1C(=O)CC2(CCCC2)C1=O | 1170 |
| Cc1cc(N2CCCC2)n2nc(-c3ccc(Cl)cc3)c(C)c2n1 | 799 |
| COc1ccccc1NC(=O)c1c(O)c2cccnc2n(-c2cccc(F)c2)c1=O | 1210 |
| COc1ccccc1-c1noc(C2CCCN2C(=O)Nc2ccc(Cl)cc2)n1 (centres undefined) | 920 |
| CC(C)c1nc(-c2ccc([N+](=O)[O-])cc2)cs1 | 1120 |
| CCOc1ccc(-c2csc(NC(=O)CS(=O)(=O)c3ccc(Cl)cc3)n2)cc1 | 1070 |
| CC(C)C(=O)Nc1c(C(=O)N2CCN(c3ccccn3)CC2)oc2ccccc12 | 649 |
| CCNC(=O)CCc1cc2ccccc2[nH]c1=O | 623 |
| Cc1ccccc1CNC(=O)C1(C)CCN(S(=O)(=O)c2cccc(Cl)c2C)CC1 | 1090 |
| CSc1ccc(NC(=O)c2ccccc2C(F)(F)F)nn1 | 765 |
| Cc1nc(-c2ccccc2)sc1CC(=O)NCCSc1nncn1C | 626 |
| CC(C)C(=O)Nc1ccc(-n2cnc(C(=O)NCc3cc(F)cc(F)c3)c2)nc1 | 785 |
| Cn1cc(-c2nc(C(=O)Nc3ccc(F)cc3Cl)cs2)c2cccnc21 | 1210 |
| CCC(c1cccs1)N1C(=O)[C@H]2CN(S(=O)(=O)c3ccc(C)c(C)c3)C[C@H]2C1=O (some centres undefined) | 1070 |

| Structure (SMILES) | RP-LC retention time [s] |
| --- | --- |
| O=C(N1CCC(Cc2ccc(COc3cccnc3)cc2)CC1)C1(c2ccccc2)CC1 | 891 |
| O=C(NCc1ccc2c(c1)OCO2)c1ccc2c(c1)N(CC(=O)N1CCCC1)C(=O)CO2 | 674 |
| COc1ccc2nc(NC(=O)Nc3ccccc3)sc2c1 | 966 |
| CC(C)c1ccccc1NC(=O)C1CCN(S(C)(=O)=O)c2ccccc2O1 (centres undefined) | 945 |
| O=C(NCc1ccccc1)c1c(O)c2cccnc2n(-c2cccc(F)c2)c1=O | 1160 |
| CC(C)N1CCn2cc(S(=O)(=O)Nc3ccc(F)cc3Cl)cc2C1=O | 778 |
| CC(C)n1cnc2ccc(-c3noc(CSc4ccncc4)n3)cc21 | 565 |
| O=C(Nc1ccc(OCc2nnc(-c3ccc(Cl)cc3)o2)cc1)c1ccoc1 | 942 |
| Cc1nc2c(NS(=O)(=O)c3ccc(F)cc3)cccn2n1 | 715 |
| O=C1CCc2cc(NC(=O)c3ccc([N+](=O)[O-])cc3Cl)ccc2N1 | 807 |
| CCOC(=O)c1cc2ccsc2n1CC(=O)NCc1ccc(C)cc1 | 981 |
| Cc1nc(NC(=O)c2ccc(F)cc2)nc2cc3c(cc12)OCO3 | 705 |
| COc1cc(OC)c(NC(=O)N2CCC3(CC2)N=C(c2cccc(F)c2)C(=O)N3)cc1Cl | 886 |
| O=C(Nc1cc(Cl)ccc1Cl)C1CN(C(=O)c2ccc(F)c(F)c2)C1 | 862 |
| O=C(CSc1ccc(-c2cccc([N+](=O)[O-])c2)nn1)c1ccc(F)cc1 | 944 |
| CCc1ccc(C2=C(C)C(N3CCCN(C(=O)CC(C)(C)C)CC3)=NS2(=O)=O)cc1 | 949 |
| CCOC(=O)C1CCCN(C(=O)Cn2c3ccccc3c3cnn(C)c(=O)c32)C1 (centres undefined) | 826 |
| COc1ccc(C(=O)N2C[C@@H]3C[C@H](NC(=O)c4ccccc4)[C@H]2C3)c(OC)c1 | 716 |
| CCC(C)n1c(=O)c2ccccc2n(Cc2nc(-c3cccc(Br)c3)no2)c1=O (centres undefined) | 1290 |
| Cc1ccc(C(=O)N2CCN(c3ccccn3)CC2)cc1NC(=O)C1=CSCCO1 | 604 |
